Assay results from ChEMBL document CHEMBL4842322, “A naphthalimide-polyamine conjugate preferentially accumulates in hepatic carcinoma metastases as a lysosome-targeted antimetastatic agent” (Eur J Med Chem, 2021).
Calls of active or inactive are those of the source. The rule behind the calls is not given here.

Key:
Huh-7 [1] = experiment: Cytotoxicity against human Huh-7 cells assessed as reduction in cell viability at 5 to 15 uM incubated for 24 hrs in presence of polyamine transporter inhibitor, Spd by MTT assay; assay type: functional, cell-based; conditions: dose 5-15 µM
HepG2 [2] = experiment: Cytotoxicity against human HepG2 cells assessed as inhibition of cell growth incubated for 48 hrs by MTT assay; assay type: functional, cell-based; conditions: HepG2, 48 h
Huh-7 [3] = experiment: Cytotoxicity against human Huh-7 cells assessed as inhibition of cell growth incubated for 48 hrs by MTT assay; assay type: functional, cell-based; conditions: Huh-7, 48 h
MDA-MB-231 = experiment: Cytotoxicity against human MDA-MB-231 cells assessed as inhibition of cell growth incubated for 48 hrs by MTT assay; assay type: functional, cell-based; conditions: MDA-MB-231, 48 h
MCF7 = experiment: Cytotoxicity against human MCF7 cells assessed as inhibition of cell growth incubated for 48 hrs by MTT assay; assay type: functional, cell-based; conditions: MCF7, 48 h
A549 [4] = experiment: Cytotoxicity against human A549 cells assessed as inhibition of cell growth incubated for 48 hrs by MTT assay; assay type: functional, cell-based; conditions: A549, 48 h
A549 [5] = experiment: Cytotoxicity against cisplatin-resistant human A549 cells assessed as inhibition of cell growth incubated for 48 hrs by MTT assay; assay type: functional, cell-based; conditions: A549, 48 h
[6] = Resistance factor, ratio of IC50 for cisplatin-resistant human A549 cells to IC50 for human A549 cells; assay type: functional
HepG2 [7] = experiment: Cytotoxicity against human HepG2 cells assessed as inhibitory of cell growth measured after 24 hrs by MTT assay; assay type: functional, cell-based; conditions: HepG2, 24 h
Huh-7 [8] = experiment: Cytotoxicity against human Huh-7 cells assessed as inhibition of cell growth measured after 24 hrs by MTT assay; assay type: functional, cell-based; conditions: Huh-7, 24 h
L02 = experiment: Cytotoxicity against human HL7702 cells assessed as inhibition of cell growth measured after 24 hrs by MTT assay; assay type: cell-based; conditions: L02, 24 h
[9] = Selectivity index, ratio of IC50 for human HL7702 cells to IC50 for human HepG2 cells; assay type: toxicity; conditions: HL7702 cells and HepG2 cells, read-out: Ratio IC50
[10] = Selectivity index, ratio of IC50 for human HL7702 cells to IC50 for human Huh-7 cells; assay type: toxicity; conditions: HL7702 cells and Huh-7 cells, read-out: Ratio IC50
[11] = Antitumor activity against human HCC cells xenografted in BALB/c mouse assessed as inhibition of tumor weight at 1 mg/kg, iv administered once daily for 7 days; assay type: functional; conditions: 168 h, time 7 day
[12] = Antitumor activity against human HCC cells xenografted in BALB/c mouse assessed as inhibition of tumor weight at 3 mg/kg, iv administered once daily for 7 days; assay type: functional; conditions: 168 h, time 7 day
[13] = Antitumor activity against human HCC cells xenografted in BALB/c mouse assessed as inhibition of tumor weight at 5 mg/kg, iv administered once daily for 7 days; assay type: functional; conditions: 168 h, time 7 day
[14] = Antimetastatic activity against human HCC cells xenografted in BALB/c mouse assessed as reduction lung metastatic nodules at 1 mg/kg, iv administered once every 2 days for 14 days; assay type: functional; conditions: 336 h, time 14 day
[15] = Antimetastatic activity against human HCC cells xenografted in BALB/c mouse assessed as reduction lung metastatic nodules at 3 mg/kg, iv administered once every 2 days for 14 days; assay type: functional; conditions: 336 h, time 14 day
[16] = Antimetastatic activity against human HCC cells xenografted in BALB/c mouse assessed as reduction lung metastatic nodules at 5 mg/kg, iv administered once every 2 days for 14 days; assay type: functional; conditions: 336 h, time 14 day
HepG2 [17] = experiment: Cytotoxicity against human HepG2 cells assessed as reduction in cell viability at 5 to 15 uM incubated for 24 hrs in presence of polyamine transporter inhibitor, Spd by MTT assay; assay type: functional, cell-based; conditions: dose 5-15 µM
HepG2 [18] = experiment: Inhibition of tumor metastasis in human HepG2 cells assessed as downregulation of HMGB1 gene expression level measured after 24 hrs by qRT-PCR analysis; assay type: functional, cell-based; conditions: dose 5-15 µM
HepG2 [19] = experiment: Inhibition of tumor metastasis in human HepG2 cells assessed as upregulation of p62 gene expression level at 5 to 15 uM measured after 24 hrs by qRT-PCR analysis; assay type: functional, cell-based; conditions: dose 5-15 µM
HepG2 [20] = experiment: Inhibition of tumor metastasis in human HepG2 cells assessed as downregulation of LC3-II gene expression level at 5 to 15 uM measured after 24 hrs by qRT-PCR analysis; assay type: functional, cell-based; conditions: dose 5-15 µM
HepG2 [21] = experiment: Inhibition of tumor metastasis in human HepG2 cells assessed as upregulation of LC3-I gene expression level at 5 to 15 uM measured after 24 hrs by qRT-PCR analysis; assay type: functional, cell-based; conditions: dose 5-15 µM
A549 [22] = experiment: Inhibition of tumor metastasis in cisplatin-resistant human A549 cells assessed as upregulation of p53 expression level at 5 to 15 uM measured after 24 hrs by western blot analysis; assay type: functional, cell-based; conditions: dose 5-15 µM
HepG2 [23] = experiment: Inhibition of tumor metastasis in human HepG2 cells assessed as upregulation of SSAT gene expression level at 5 to 15 uM measured after 24 hrs by qRT-PCR analysis; assay type: functional, cell-based; conditions: dose 5-15 µM
[24] = Upregulation of PAO expression in human HepG2 cells at 10 uM measured after 24 hrs relative to control; assay type: functional
[25] = Upregulation of PAO expression in human Huh-7 cells at 10 uM measured after 24 hrs relative to control; assay type: functional
HepG2 [26] = experiment: Downregulation of Putrescine contents in human HepG2 cells measured after 24 hrs by HPLC analysis; assay type: functional, cell-based
HepG2 [27] = experiment: Downregulation of Spermidine contents in human HepG2 cells measured after 24 hrs by HPLC analysis; assay type: functional, cell-based
HepG2 [28] = experiment: Downregulation of Spermine contents in human HepG2 cells measured after 24 hrs by HPLC analysis; assay type: functional, cell-based
Huh-7 [29] = experiment: Downregulation of Putrescine contents in human Huh-7 cells measured after 24 hrs by HPLC analysis; assay type: functional, cell-based

For `NCCCCNCCCCNCCCCN1C(=O)c2cccc3cc(NC(=O)CN)cc(c23)C1=O`, the Activity (Huh-7 [1]) was “inactive”, the IC50 (HepG2 [2]) was 1.32 µM and the IC50 (Huh-7 [3]) was 0.98 µM. The IC50 (MDA-MB-231) was 15.4 µM, the IC50 (MCF7) was 16.2 µM and the IC50 (A549 [4]) was 20.3 µM. The IC50 (A549 [5]) was 15.5 µM, the “Ratio IC50” value [6] was 0.76 and the IC50 (HepG2 [7]) was 1.32 µM. It also gave an IC50 (Huh-7 [8]) of 0.98 µM, an IC50 (L02) of 6.3 µM and a selectivity ratio [9] of 4.77. For the same compound, the selectivity ratio [10] was 6.43, the inhibition in vivo at 1 mg/kg [11] was 58.5% and the inhibition in vivo at 3 mg/kg [12] was 70.1%. The inhibition in vivo at 5 mg/kg [13] was 76%, the inhibition in vivo at 1 mg/kg [14] was 58.5% and the inhibition in vivo at 3 mg/kg [15] was 65.5%. The inhibition in vivo at 5 mg/kg [16] was 75%, the Activity (HepG2 [17]) was “inactive” and the inhibition (HepG2 [18]) was “Dose-Dependent Effect”. For the same compound, the inhibition (HepG2 [19]) was “Active”, the inhibition (HepG2 [20]) was “Active” and the inhibition (HepG2 [21]) was “Active”. The inhibition (A549 [22]) was “Active”, the inhibition (HepG2 [23]) was “Active” and the “fold change (FC)” value [24] was 1.5. The “fold change (FC)” value [25] was 1.5, the inhibition (HepG2 [26]) was “Active” and the inhibition (HepG2 [27]) was “Active”. For the same compound, the inhibition (HepG2 [28]) was “Active” and the inhibition (Huh-7 [29]) was “Active”.
